From PMC12584752, “Covalent fragment screening to inhibit the E3 ligase activity of bacterial NEL enzymes SspH1 and SspH2” (RSC Chemical Biology, 2025)
“Also recorded” adds a separate entry of the source.

Assays:
Assay in all cases: Intact LC-MS labelling selectivity
Format in all cases: binding
Conditions in all cases: dilution series 100–6.25 μM, 24 hours at 4 °C
DUB OTUD4 = molecular target: T1, DUB OTUD4 (Homo sapiens, UniProt Q01804)
T1 construct: OTUD4 aa 1–156; His-tag (N, cleaved yes); made in house; host or cells: E. coli BL21
T1 sequence (Q01804 1-156): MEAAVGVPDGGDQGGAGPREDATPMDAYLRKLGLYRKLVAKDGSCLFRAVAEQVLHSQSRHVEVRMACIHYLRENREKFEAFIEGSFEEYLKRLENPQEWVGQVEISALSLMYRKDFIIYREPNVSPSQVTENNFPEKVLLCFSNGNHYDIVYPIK
Method: (§1) Fig. 3 Validation of HTC hit compounds by intact MS. Labelling heatmaps of dilution series (100–6.25 μM) of compounds 4–10 with (A) WT SspH1 and (B) C492K SspH1. Labelling heatmaps of dilution series of (C) compound 6 and (D) compound 7 with bacterial and human ubiquitin binding proteins. Recombinant proteins were incubated at either 1.0 or 0.5 μM with 50 μM fragments for 24 hours at 4 °C, before fragment labelling was analysed by intact LC-MS. Bacterial proteins are shown in bold and human proteins in italic fonts. (E)–(H) Kinetics analyses: time courses (0–12 hours) of compound labelling (100–1.56 μM) of SspH1 and SspH2 (0.5 μM) for (E) SspH1 and compound 7, and (F) SspH2 and compound 6. Measurements were performed in technical triplicates. Labelling percentages were plotted against time in GraphPad Prism v.10, and curves fitted separately for each replicate using one-phase association, with constraints Y0 = 0 and plateau = highest labelling percentage. Graphs for SspH1 and compound 6, and SspH2 and compound 7 are shown in Fig. S4A and B. Rate constants (kobs, as given by Graphpad Prism calculated K values) were plotted against fragment concentration in triplicate for (G) SspH1 and (H) SspH2. Straight lines were fitted with constraint Yintercept = 0. For SspH2 kinetics, 100 μM kobs was outside the linear range.
(§2) To mitigate the risk of selecting compounds which indiscriminately recognise ubiquitin binding proteins, we next performed preliminary selectivity studies with compounds 6 and 7 against human ubiquitin system proteins. […] In parallel, we tested the compounds against related NEL E3 ligases SspH2 and IpaH9.8. […] Our identification of dual SspH1 and SspH2 ligands is likely due to the high protein sequence similarity of SspH1 and SspH2 (60% for full length; 78% for NEL domains).
(§3) Dilution series experiments were performed as for 1st round screening. 1 μM OTUD4, OTUD5 or 0.5 μM HOIL, UbcH5A, SspH2, SspH1 C492K were incubated with 100–6.25 μM compounds for 24 hours at 4 °C, in 25 mM HEPES pH 7.5, 50 mM NaCl buffer. Intact protein LC-MS was performed as previously described.[40] The following deconvolution conditions were used for recombinant proteins studied in this work: […]

human E2 UbcH5A = molecular target: T2, human E2 UbcH5A (Homo sapiens, UniProt P51668)
T2 construct: UbcH5A aa 1–147; His-tag (N, cleaved yes); made in house; host or cells: E. coli BL21
Method: as §1, §2, §3

HECT-type E3 UBE3C = molecular target: T3, HECT-type E3 UBE3C (Homo sapiens, UniProt Q15386)
T3 construct: UBE3C; 693–1083; His-tag (N, cleaved yes); made in house; host or cells: E. coli BL21
T3 sequence (Q15386 693-1083): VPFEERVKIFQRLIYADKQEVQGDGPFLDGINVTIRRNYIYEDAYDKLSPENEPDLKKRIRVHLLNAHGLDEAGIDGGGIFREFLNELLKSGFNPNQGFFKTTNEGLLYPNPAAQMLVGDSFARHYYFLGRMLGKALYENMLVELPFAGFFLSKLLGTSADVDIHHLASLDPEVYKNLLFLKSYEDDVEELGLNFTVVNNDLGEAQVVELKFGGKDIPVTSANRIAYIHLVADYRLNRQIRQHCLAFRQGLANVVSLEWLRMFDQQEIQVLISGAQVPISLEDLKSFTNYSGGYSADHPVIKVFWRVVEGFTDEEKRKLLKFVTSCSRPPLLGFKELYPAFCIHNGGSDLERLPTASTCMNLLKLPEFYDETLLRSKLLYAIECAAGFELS
Method: as §1, §2, §3

DUB OTUD5 = molecular target: T4, DUB OTUD5 (Homo sapiens, UniProt Q96G74)
T4 construct: OTUD5 aa 172–351; His-tag (N, cleaved yes); made in house; host or cells: E. coli BL21
T4 sequence (Q96G74 172-351): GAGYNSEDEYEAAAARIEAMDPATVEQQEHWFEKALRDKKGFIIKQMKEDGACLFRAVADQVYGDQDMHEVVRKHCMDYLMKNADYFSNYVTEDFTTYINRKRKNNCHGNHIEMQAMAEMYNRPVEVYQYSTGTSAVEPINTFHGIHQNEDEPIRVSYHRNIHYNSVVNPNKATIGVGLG
Method: as §1, §2, §3

RBR-type E3 HOIL = molecular target: T5, RBR-type E3 HOIL (Homo sapiens, UniProt Q9BYM8)
T5 construct: HOIL aa 1–510; His-tag (N, cleaved yes); made in house; host or cells: E. coli BL21
T5 sequence (Q9BYM8 1-510): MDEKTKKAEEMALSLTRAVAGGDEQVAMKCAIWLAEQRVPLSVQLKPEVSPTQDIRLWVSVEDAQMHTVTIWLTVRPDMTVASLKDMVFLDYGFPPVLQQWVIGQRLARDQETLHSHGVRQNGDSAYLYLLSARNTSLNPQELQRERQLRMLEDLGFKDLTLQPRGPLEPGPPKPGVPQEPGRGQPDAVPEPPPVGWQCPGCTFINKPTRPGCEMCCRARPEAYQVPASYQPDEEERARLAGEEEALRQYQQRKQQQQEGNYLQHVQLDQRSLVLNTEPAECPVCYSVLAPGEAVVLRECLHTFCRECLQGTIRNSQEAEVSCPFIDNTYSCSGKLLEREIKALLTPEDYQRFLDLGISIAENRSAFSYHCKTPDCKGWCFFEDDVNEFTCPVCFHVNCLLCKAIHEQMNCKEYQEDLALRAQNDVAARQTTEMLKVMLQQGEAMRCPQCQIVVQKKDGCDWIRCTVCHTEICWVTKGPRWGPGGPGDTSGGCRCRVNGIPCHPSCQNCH
Method: as §1, §2, §3

T2 sequence (P51668 whole entry, the tested form may be a part): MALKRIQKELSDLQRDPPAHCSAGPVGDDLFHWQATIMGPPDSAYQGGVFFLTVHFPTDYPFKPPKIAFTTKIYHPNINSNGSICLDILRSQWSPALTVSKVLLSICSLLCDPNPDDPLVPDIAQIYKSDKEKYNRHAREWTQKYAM

**Q.** For Cl.O=C(CCl)N1CCC(n2c(-c3ccc(C(F)(F)F)cc3)nc3ccccc32)CC1 [compound 7], which “labelling of OTUD4” value (DUB OTUD4) is on record?
**A.** minimal or no labelling

**Q.** And the “labelling of UbcH5A” value (human E2 UbcH5A)?
**A.** minimal or no labelling; also recorded: not labelled

**Q.** What about the “labelling of UBE3C” value (HECT-type E3 UBE3C) of the same compound?
**A.** minimal or no labelling

**Q.** And the “labelling of OTUD5” value (DUB OTUD5)?
**A.** minimal or no labelling

**Q.** And the “labelling of HOIL” value (RBR-type E3 HOIL)?
**A.** minimal or no labelling

**Q.** How did the “labelling of OTUD4” value (DUB OTUD4) turn out when Cc1cc(-c2nc3ccccc3n2C2CCN(C(=O)CCl)CC2)cc(C)c1O.Cl [compound 6] was run?
**A.** minimal or no labelling

**Q.** What about the “labelling of UbcH5A” value (human E2 UbcH5A) of the same compound?
**A.** minimal or no labelling; also recorded: not labelled

**Q.** What about the “labelling of UBE3C” value (HECT-type E3 UBE3C) of the same compound?
**A.** minimal or no labelling

**Q.** What about the “labelling of OTUD5” value (DUB OTUD5) of the same compound?
**A.** minimal or no labelling

**Q.** What about the “labelling of HOIL” value (RBR-type E3 HOIL) of the same compound?
**A.** minimal or no labelling
